Reference: PubChem BioAssay (NCI)
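Test compounds were applied to cells in 96-well plates for 48 hours at 5 doses. The concentration for 50% growth inhibition is given as GI50. TGI: total growth inhibition.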

Key:
Assay in all cases: NCI anticancer screen, dose series, 48 h; in the data active = GI50 below about 0.43 µM; inactive = the rest
NCI-H460 lung = tested on: NCI-H460 lung
HT29 colon = tested on: HT29 colon
ACHN renal = tested on: ACHN renal
SF-268 CNS = tested on: SF-268 CNS
NCI-H23 lung = tested on: NCI-H23 lung
SW-620 colon = tested on: SW-620 colon
MALME-3M melanoma = tested on: MALME-3M melanoma
A549 NSCLC = tested on: A549 NSCLC
OVCAR-5 ovarian = tested on: OVCAR-5 ovarian
SF-295 CNS = tested on: SF-295 CNS
HS 578T breast = tested on: HS 578T breast
DU-145 prostate = tested on: DU-145 prostate
RXF 393 renal = tested on: RXF 393 renal
SNB-75 CNS = tested on: SNB-75 CNS
SN12C renal = tested on: SN12C renal
SNB-19 CNS = tested on: SNB-19 CNS
CAKI-1 renal = tested on: CAKI-1 renal
A498 renal = tested on: A498 renal
SK-MEL-2 melanoma = tested on: SK-MEL-2 melanoma
U251 CNS = tested on: U251 CNS
OVCAR-8 ovarian = tested on: OVCAR-8 ovarian
SR leukemia = tested on: SR leukemia
786-0 renal = tested on: 786-0 renal
T-47D breast = tested on: T-47D breast
NCI/ADR-RES ovarian = tested on: NCI/ADR-RES ovarian
M14 melanoma = tested on: M14 melanoma
HCT-15 colon = tested on: HCT-15 colon
SK-MEL-5 melanoma = tested on: SK-MEL-5 melanoma
UACC-257 melanoma = tested on: UACC-257 melanoma
SF-539 CNS = tested on: SF-539 CNS
SK-MEL-28 melanoma = tested on: SK-MEL-28 melanoma
NCI-H522 lung = tested on: NCI-H522 lung
HCC-2998 colon = tested on: HCC-2998 colon
RPMI-8226 leukemia = tested on: RPMI-8226 leukemia
HL-60(TB) leukemia = tested on: HL-60(TB) leukemia
UACC-62 melanoma = tested on: UACC-62 melanoma
CCRF-CEM leukemia = tested on: CCRF-CEM leukemia
K-562 leukemia = tested on: K-562 leukemia
IGROV1 ovarian = tested on: IGROV1 ovarian
NCI-H226 lung = tested on: NCI-H226 lung
BT-549 breast = tested on: BT-549 breast
MOLT-4 leukemia = tested on: MOLT-4 leukemia
MDA-MB-231 breast = tested on: MDA-MB-231 breast
MCF7 breast = tested on: MCF7 breast
TK-10 renal = tested on: TK-10 renal
HCT-116 colon = tested on: HCT-116 colon
HOP-92 NSCLC = tested on: HOP-92 NSCLC
SK-OV-3 ovarian = tested on: SK-OV-3 ovarian
OVCAR-4 ovarian = tested on: OVCAR-4 ovarian
UO-31 renal = tested on: UO-31 renal
COLO 205 colon = tested on: COLO 205 colon
PC-3 prostate = tested on: PC-3 prostate
KM12 colon = tested on: KM12 colon
HOP-62 NSCLC = tested on: HOP-62 NSCLC
LOX IMVI melanoma = tested on: LOX IMVI melanoma
OVCAR-3 ovarian = tested on: OVCAR-3 ovarian

Cn1cc(C2=C(c3cn(C)c4cc(C(N)=O)ccc34)C(=O)NC2=O)c2ccccc21
13.7 µM: TGI (786-0 renal)
3.39 µM: TGI (SK-MEL-5 melanoma)
> 20.9 µM: TGI (MOLT-4 leukemia)
> 20.1 µM: TGI (UO-31 renal)
> 19.7 µM: TGI (IGROV1 ovarian)
> 16.1 µM: TGI (SK-MEL-2 melanoma)
3.2 µM: TGI (NCI-H522 lung)
> 13.5 µM: TGI (HT29 colon)
> 21.6 µM: TGI (HCT-116 colon)
> 20.8 µM: TGI (RPMI-8226 leukemia)
4.24 µM: TGI (SF-539 CNS)
1.57 µM: TGI (OVCAR-3 ovarian)
> 16.8 µM: TGI (UACC-62 melanoma)
1.95 µM: TGI (RXF 393 renal)
2.06 µM: TGI (A498 renal)
> 10.2 µM: TGI (DU-145 prostate)
> 9.8 µM: TGI (NCI-H460 lung)
inactive: GI50 (NCI-H460 lung) 0.854 µM | GI50 (HT29 colon) 0.924 µM | GI50 (ACHN renal) 2.64 µM | GI50 (SF-268 CNS) 1.74 µM | GI50 (NCI-H23 lung) 1.35 µM | GI50 (SW-620 colon) 1.27 µM | GI50 (MALME-3M melanoma) 4.2 µM | GI50 (A549 NSCLC) 1.66 µM | GI50 (OVCAR-5 ovarian) 11.1 µM | GI50 (SF-295 CNS) 0.987 µM | GI50 (HS 578T breast) 0.687 µM | GI50 (DU-145 prostate) 0.987 µM | GI50 (RXF 393 renal) 0.559 µM | GI50 (SNB-75 CNS) 0.447 µM | GI50 (SN12C renal) 1.91 µM | GI50 (SNB-19 CNS) 2.15 µM | GI50 (CAKI-1 renal) 0.831 µM | GI50 (A498 renal) 0.47 µM | GI50 (SK-MEL-2 melanoma) 1.44 µM | GI50 (U251 CNS) 1.04 µM | GI50 (OVCAR-8 ovarian) 1.67 µM | GI50 (SR leukemia) 0.656 µM | GI50 (786-0 renal) 1.81 µM | GI50 (T-47D breast) 1.98 µM | GI50 (NCI/ADR-RES ovarian) 1.16 µM | GI50 (M14 melanoma) 1.08 µM | GI50 (HCT-15 colon) 1.19 µM | GI50 (SK-MEL-5 melanoma) 0.751 µM | GI50 (UACC-257 melanoma) 3.66 µM | GI50 (SF-539 CNS) 0.791 µM | GI50 (SK-MEL-28 melanoma) 2.66 µM | GI50 (NCI-H522 lung) 0.471 µM | GI50 (HCC-2998 colon) 5.17 µM | GI50 (RPMI-8226 leukemia) 1.65 µM | GI50 (HL-60(TB) leukemia) 0.769 µM | GI50 (UACC-62 melanoma) 2.31 µM | GI50 (CCRF-CEM leukemia) 0.951 µM | GI50 (K-562 leukemia) 0.857 µM | GI50 (IGROV1 ovarian) 2.48 µM | GI50 (NCI-H226 lung) 4.29 µM | GI50 (BT-549 breast) 7.92 µM | GI50 (MOLT-4 leukemia) 1.83 µM | GI50 (MDA-MB-231 breast) 2.88 µM | GI50 (MCF7 breast) 0.949 µM | GI50 (TK-10 renal) 3.76 µM | GI50 (HCT-116 colon) 1.08 µM | GI50 (HOP-92 NSCLC) 2.15 µM | GI50 (SK-OV-3 ovarian) 1.44 µM | GI50 (OVCAR-4 ovarian) 4.91 µM | GI50 (UO-31 renal) 1.81 µM | GI50 (COLO 205 colon) 0.914 µM | GI50 (PC-3 prostate) 0.909 µM | GI50 (KM12 colon) 1.02 µM | GI50 (HOP-62 NSCLC) 1.67 µM | GI50 (LOX IMVI melanoma) 1.76 µM | GI50 (OVCAR-3 ovarian) 0.608 µM
13.8 µM: TGI (SN12C renal)
3.48 µM: TGI (HL-60(TB) leukemia)
6.17 µM: TGI (KM12 colon)
> 18.3 µM: TGI (SF-268 CNS)
> 7.9 µM: TGI (SNB-75 CNS)
10.7 µM: TGI (CAKI-1 renal)
24.5 µM: TGI (HOP-92 NSCLC)
> 22.2 µM: TGI (SK-OV-3 ovarian)
> 21.7 µM: TGI (NCI-H226 lung)
> 22.8 µM: TGI (SR leukemia)
> 25 µM: TGI (ACHN renal) | TGI (NCI-H23 lung) | TGI (SW-620 colon) | TGI (MALME-3M melanoma) | TGI (A549 NSCLC) | TGI (OVCAR-5 ovarian) | TGI (SF-295 CNS) | TGI (SNB-19 CNS) | TGI (U251 CNS) | TGI (OVCAR-8 ovarian) | TGI (T-47D breast) | TGI (NCI/ADR-RES ovarian) | TGI (M14 melanoma) | TGI (HCT-15 colon) | TGI (UACC-257 melanoma) | TGI (SK-MEL-28 melanoma) | TGI (HCC-2998 colon) | TGI (CCRF-CEM leukemia) | TGI (K-562 leukemia) | TGI (BT-549 breast) | TGI (MCF7 breast) | TGI (OVCAR-4 ovarian) | TGI (PC-3 prostate) | TGI (HOP-62 NSCLC) | TGI (LOX IMVI melanoma)
6.08 µM: TGI (COLO 205 colon)
19.9 µM: TGI (MDA-MB-231 breast)
4.02 µM: TGI (HS 578T breast)
> 21 µM: TGI (TK-10 renal)
